Test results as given in patent publication US20260207602A1, “EGFR INHIBITORS” (Blueprint Medicines Corporation, priority 2022, published 2026).

Experiments:
EGFR L858R = target: T1, EGFR L858R (Homo sapiens, UniProt P00533, L858R); assay: Biochemical EGFR inhibition assay (Caliper mobility shift), EGFR L858R; conditions: biochemical Caliper mobility shift assay, EGFR L858R enzyme; read-out: Enz EGFR L858R IC50
T1 construct: purchased SignalChem E10-122BG
Procedure, shortened: (§1)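 Apparent IC50 values come from Caliper electrophoretic separation of phosphorylated and unphosphorylated 5-FAM peptide (2.5 μM). ATP was either 1.0 mM or at Km; HEPES pH 7.5 buffer with MgCl2, DTT, 1% DMSO. Reactions ran at 25 °C until 10–20% phosphorylated, then EDTA quench.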

EGFR (d746-750) = target: T2, EGFR (d746-750) (Homo sapiens, UniProt P00533, DEL746-750); assay: Biochemical EGFR inhibition assay (Caliper mobility shift), EGFR (d746-750); conditions: biochemical Caliper mobility shift assay, EGFR Exon 19-del enzyme; read-out: Enz EGFR Exon 19-del IC50
T2 construct: purchased SignalChem E10-122JG
Procedure, shortened: as §1

[1] = target: intracellular phosphorylation of EGFR (Tyr1068) in PC-9 cells (Homo sapiens, UniProt P00533, DEL746-750); assay: PC-9 pEGFR AlphaLISA assay; assay type: cell-based; conditions: 4 hours incubation, read-out: Phos EGFR PC9 IC50
Procedure, shortened: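 PC-9 cells (EGFR del746-750) in phenol-free DMEM/10% FBS, adhered overnight, then exposed to 10-point 4-fold compound dilutions for 4 h at 37 °C. Lysates assayed for pEGFR Tyr1068 by AlphaLISA SureFire Ultra; IC50 from percent pEGFR inhibition vs log concentration.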

T2 sequence (P00533 with tags, fused parts or gaps DEL746-750 limits assumed): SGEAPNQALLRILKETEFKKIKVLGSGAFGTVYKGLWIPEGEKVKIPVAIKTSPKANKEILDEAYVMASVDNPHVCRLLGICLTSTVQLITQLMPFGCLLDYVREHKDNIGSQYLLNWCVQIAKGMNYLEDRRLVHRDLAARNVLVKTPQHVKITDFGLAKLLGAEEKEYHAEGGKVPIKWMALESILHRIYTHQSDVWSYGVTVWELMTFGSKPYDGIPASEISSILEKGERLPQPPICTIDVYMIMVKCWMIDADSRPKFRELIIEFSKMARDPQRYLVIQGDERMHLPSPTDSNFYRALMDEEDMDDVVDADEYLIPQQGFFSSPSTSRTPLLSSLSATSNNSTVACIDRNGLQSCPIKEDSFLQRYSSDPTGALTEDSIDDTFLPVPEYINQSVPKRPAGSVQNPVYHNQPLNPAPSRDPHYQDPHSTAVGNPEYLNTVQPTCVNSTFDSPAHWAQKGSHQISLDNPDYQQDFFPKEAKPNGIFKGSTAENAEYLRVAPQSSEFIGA
Chain of intracellular phosphorylation of EGFR (Tyr1068) in PC-9 cells (P00533 with tags, fused parts or gaps DEL746-750): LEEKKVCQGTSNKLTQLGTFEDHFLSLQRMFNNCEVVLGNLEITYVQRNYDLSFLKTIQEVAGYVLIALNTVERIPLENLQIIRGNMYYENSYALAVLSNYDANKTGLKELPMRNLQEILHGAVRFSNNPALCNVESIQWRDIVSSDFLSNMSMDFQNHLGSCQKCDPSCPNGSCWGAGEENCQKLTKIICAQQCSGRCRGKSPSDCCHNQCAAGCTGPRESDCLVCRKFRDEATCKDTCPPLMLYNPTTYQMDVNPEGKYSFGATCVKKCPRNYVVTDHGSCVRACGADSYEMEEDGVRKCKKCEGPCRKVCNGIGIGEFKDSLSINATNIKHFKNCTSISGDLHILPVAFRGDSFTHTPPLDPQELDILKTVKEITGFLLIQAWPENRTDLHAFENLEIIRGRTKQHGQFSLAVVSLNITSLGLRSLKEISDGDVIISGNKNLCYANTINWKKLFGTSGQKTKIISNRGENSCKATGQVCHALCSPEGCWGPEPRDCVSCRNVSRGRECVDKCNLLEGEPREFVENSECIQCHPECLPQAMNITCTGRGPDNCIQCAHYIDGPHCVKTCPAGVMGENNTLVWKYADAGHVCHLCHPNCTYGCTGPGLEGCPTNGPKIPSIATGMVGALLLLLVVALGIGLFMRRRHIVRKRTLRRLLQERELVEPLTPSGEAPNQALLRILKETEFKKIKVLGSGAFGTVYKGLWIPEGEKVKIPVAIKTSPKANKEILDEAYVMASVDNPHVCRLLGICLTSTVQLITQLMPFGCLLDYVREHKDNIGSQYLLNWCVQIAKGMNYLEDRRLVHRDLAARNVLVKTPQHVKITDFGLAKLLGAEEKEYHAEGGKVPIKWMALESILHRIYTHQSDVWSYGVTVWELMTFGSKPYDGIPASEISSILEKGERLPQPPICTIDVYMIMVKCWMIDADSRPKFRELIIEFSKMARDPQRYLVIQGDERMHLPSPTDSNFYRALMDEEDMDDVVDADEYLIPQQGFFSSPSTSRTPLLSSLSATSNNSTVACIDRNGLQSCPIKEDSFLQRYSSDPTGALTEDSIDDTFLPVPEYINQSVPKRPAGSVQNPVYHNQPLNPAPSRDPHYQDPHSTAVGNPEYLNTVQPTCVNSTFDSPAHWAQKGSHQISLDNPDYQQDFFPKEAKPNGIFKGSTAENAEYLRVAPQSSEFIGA
T1 sequence (P00533 25-1210 L858R): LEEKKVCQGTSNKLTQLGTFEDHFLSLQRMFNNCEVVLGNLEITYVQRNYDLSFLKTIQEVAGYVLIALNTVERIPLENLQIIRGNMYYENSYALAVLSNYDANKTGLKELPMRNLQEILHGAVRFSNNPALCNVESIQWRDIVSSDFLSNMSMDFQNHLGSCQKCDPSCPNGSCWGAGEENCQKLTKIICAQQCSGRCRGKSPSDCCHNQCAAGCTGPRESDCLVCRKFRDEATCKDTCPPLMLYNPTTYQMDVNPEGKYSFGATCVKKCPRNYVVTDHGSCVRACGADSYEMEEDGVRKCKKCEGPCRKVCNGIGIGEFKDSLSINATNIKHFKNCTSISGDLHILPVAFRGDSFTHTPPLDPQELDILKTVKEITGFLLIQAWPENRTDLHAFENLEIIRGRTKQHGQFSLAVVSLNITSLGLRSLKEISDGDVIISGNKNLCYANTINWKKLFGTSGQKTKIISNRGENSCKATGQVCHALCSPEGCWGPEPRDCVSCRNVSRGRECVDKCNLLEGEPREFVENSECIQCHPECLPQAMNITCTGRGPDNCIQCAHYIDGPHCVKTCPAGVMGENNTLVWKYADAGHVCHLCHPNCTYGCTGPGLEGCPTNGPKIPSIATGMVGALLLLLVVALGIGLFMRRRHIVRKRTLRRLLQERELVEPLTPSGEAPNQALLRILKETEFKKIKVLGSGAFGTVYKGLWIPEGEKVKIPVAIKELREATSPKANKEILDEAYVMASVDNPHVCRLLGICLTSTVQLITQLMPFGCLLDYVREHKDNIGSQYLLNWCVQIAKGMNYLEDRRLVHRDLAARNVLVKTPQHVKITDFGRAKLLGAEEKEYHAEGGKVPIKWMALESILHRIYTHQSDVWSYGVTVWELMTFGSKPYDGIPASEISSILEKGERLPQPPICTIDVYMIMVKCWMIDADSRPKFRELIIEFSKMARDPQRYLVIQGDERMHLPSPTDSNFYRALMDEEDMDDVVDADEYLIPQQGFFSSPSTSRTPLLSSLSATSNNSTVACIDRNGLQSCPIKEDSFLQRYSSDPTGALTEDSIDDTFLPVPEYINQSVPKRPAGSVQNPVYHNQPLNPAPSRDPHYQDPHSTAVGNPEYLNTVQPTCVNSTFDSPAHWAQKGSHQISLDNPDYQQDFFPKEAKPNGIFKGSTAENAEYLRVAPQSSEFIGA

Structure (SMILES) | IC50 (EGFR L858R) | IC50 (EGFR (d746-750)) | IC50 [1]
C[C@@H](Oc1cc(N2CCN(C)CC2)cc2ncnc(Nc3ccc4ncsc4c3F)c12)C1COC1 (single isomer, unassigned) [Example 95] | 10.1 to 50 nM | ≤ 10 nM | 10.1 to 50 nM
C[C@@H]1CN(c2cc(O[C@H](C)C3COC3)c3c(Nc4ccc5ncsc5c4F)ncnc3c2)CCN1C (single isomer, unassigned) [Example 102] | ≤ 10 nM | ≤ 10 nM | ≤ 10 nM
CN1CC[C@H](Oc2cc(-c3cnn(C)c3)cc3ncnc(Nc4ccc5ncsc5c4)c23)C1=O (single isomer, unassigned) [Example 23] | ≤ 10 nM | ≤ 10 nM | ≤ 10 nM
Cn1cc(-c2cc(OC3CCOCC3)c3c(Nc4ccc5ncsc5c4)ncnc3c2)cn1 [Example 15, N-(7-(1-methyl-1H-pyrazol-4-yl)-5-((tetrahydro-2H-pyran-4-yl)oxy)quinazolin-4-yl)benzo[d]thiazol-6-amine] | ≤ 10 nM | ≤ 10 nM | ≤ 10 nM
CN1CC[C@@H]2CN(C(=O)Nc3cc4c(Nc5ccc6ncsc6c5)ncnc4cc3-c3ccn(C)n3)C[C@@H]21 [Example 252, (3aR,6aR)-N-(4-(benzo[d]thiazol-6-ylamino)-7-(1-methyl-1H-pyrazol-3-yl)quinazolin-6-yl)-1-methylhexahydropyrrolo[3,4-b]pyrrole-5(1H)-carboxamide] | ≤ 10 nM | ≤ 10 nM | ≤ 10 nM
C[C@@H]1CNCCN1c1cc(O[C@H](C)C2COC2)c2c(Nc3ccc4ncsc4c3F)ncnc2c1 (single isomer, unassigned) [Example 104] | ≤ 10 nM | ≤ 10 nM | 10.1 to 50 nM
C[C@@H]1OC[C@@H]1Oc1cc(-c2cnn(C)c2)cc2ncnc(Nc3ccc4ncsc4c3)c12 (racemic) [Example 9, cis-N-(7-(1-methyl-1H-pyrazol-4-yl)-5-((-2-methyloxetan-3-yl)oxy)quinazolin-4-yl)benzo[d]thiazol-6-amine] | ≤ 10 nM | ≤ 10 nM | 10.1 to 50 nM

The next lines start with the values.

IC50 (EGFR L858R) | IC50 (EGFR (d746-750)) | IC50 [1] | Structure (SMILES)
≤ 10 nM | ≤ 10 nM | ≤ 10 nM | COc1nn(C)cc1-c1cc(O[C@@H]2CCN(C)C[C@H]2F)c2c(Nc3ccc4ncsc4c3)ncnc2c1 (single isomer, unassigned) [Example 358]
≤ 10 nM | ≤ 10 nM | 10.1 to 50 nM | CN1CC[C@H](Oc2cc(-c3cnn(C)c3)cc3ncnc(Nc4ccc5ncsc5c4)c23)[C@@H](O)C1 (single isomer, unassigned) [Example A35]
≤ 10 nM | ≤ 10 nM | ≤ 10 nM | CO[C@@H]1CNCC[C@H]1Oc1cc(-c2cnn(C)c2)cc2ncnc(Nc3ccc4ncsc4c3)c12 (single isomer, unassigned) [Example A42]
≤ 10 nM | ≤ 10 nM | ≤ 10 nM | Cn1cc(-c2cc(O[C@H]3CNC[C@H](F)C3)c3c(Nc4ccc5ncsc5c4)ncnc3c2)cn1 (racemic) [Example 331, trans-N-(5-(((3R,5R)-5-fluoropiperidin-3-yl)oxy)-7-(1-methyl-1H-pyrazol-4-yl)quinazolin-4-yl)benzo[d]thiazol-6-amine and N-(5-(((3S,5S)-5-fluoropiperidin-3-yl)oxy)-7-(1-methyl-1H-pyrazol-4-yl)quinazolin-4-yl)benzo[d]thiazol-6-amine]
≤ 10 nM | ≤ 10 nM | ≤ 10 nM | Cn1cc(-c2cc(O[C@H]3CC[C@@H](N)CC3)c3c(Nc4ccc5ncsc5c4)ncnc3c2)cn1 [Example A09, N-(5-(((1s,4s)-4-aminocyclohexyl)oxy)-7-(1-methyl-1H-pyrazol-4-yl)quinazolin-4-yl)benzo[d]thiazol-6-amine]
10.1 to 50 nM | 10.1 to 50 nM | 10.1 to 50 nM | C[C@@H](Oc1cc(-c2cnn(C)c2)cc2ncnc(Nc3ccc4ncsc4c3)c12)C1CN(C)C1 (single isomer, unassigned) [Example 384]
